# Starred links: 1 amine or outer side, 2 acyl side, 3 side chain; linkers in the order of their positions; H or OH if unused. Non-standard residues stand in square brackets, D forms with d. Residues, ends and D or L forms follow the SMILES beside them. Groups on a side chain read outwards from the residue. *: point of attachment. C18 diacid = O=C(O)CCCCCCCCCCCCCCCCC(=O)*; γGlu = O=C(O)[C@H](CCC(=O)[*:2])N[*:1]; αMeF = C[C@](N)(Cc1ccccc1)C(=O)O; Aib = CC(C)(N)C(=O)O
# Experiments:
# [1] = Mouse acute food intake study; format: in vivo; details: male C57Bl/6 mice, s.c., dose 10 nmol/kg, cumulative food intake at 24 hr vs vehicle
# In short: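 Single-housed male C57Bl/6 mice (8-9 weeks on arrival), chow-fed, acclimated and sham-dosed ≥2 times, were fasted 6-8 h, then given vehicle or peptide subcutaneously at 5 mL/kg 1-2 h before lights out. Food intake was recorded automatically over 48 h and analysed as cumulative intake.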
# [2] = Proteolytic resistance to FasSSGF containing porcine pancreatic pepsin; format: in vitro ADME; details: pig, simulated gastric fluid
# In short: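 Peptide (250 μM stock in FasSSGF) mixed 1:1 with porcine pepsin stock (0.5 mg/mL in FasSSGF) and held at 37° C; samples at 0, 5, 10, 15 and 30 min quenched in ammonium bicarbonate, pH 8. Intact peptide remaining estimated by RP-HPLC peak area, UV 210 nm.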
# [3] = target: T1, recombinant Neprilysin (Homo sapiens, UniProt P08473); assay: Proteolytic resistance to neprilysin; format: in vitro ADME; details: pH 8.3
# T1 construct: purchased R&D Systems 1182-ZNC-010
# T1 sequence (P08473 52-750 limits assumed): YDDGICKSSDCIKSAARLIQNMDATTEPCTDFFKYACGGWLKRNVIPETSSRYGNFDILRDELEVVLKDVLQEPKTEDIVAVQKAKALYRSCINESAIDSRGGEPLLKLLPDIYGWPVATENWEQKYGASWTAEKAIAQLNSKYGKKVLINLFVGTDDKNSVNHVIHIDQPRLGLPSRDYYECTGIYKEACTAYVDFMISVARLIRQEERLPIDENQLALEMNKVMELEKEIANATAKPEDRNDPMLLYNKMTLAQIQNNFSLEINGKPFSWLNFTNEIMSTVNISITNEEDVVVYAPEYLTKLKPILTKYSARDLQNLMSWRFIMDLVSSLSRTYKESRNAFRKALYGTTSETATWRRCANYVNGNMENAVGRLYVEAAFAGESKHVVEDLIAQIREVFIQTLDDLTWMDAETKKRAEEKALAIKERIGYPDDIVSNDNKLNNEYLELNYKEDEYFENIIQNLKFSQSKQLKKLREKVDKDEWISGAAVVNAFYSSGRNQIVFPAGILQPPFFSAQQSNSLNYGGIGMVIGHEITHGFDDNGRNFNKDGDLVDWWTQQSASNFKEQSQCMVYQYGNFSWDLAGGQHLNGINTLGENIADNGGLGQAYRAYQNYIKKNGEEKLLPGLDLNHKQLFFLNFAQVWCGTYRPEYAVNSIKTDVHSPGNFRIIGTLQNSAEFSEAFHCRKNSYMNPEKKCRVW
# In short: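 Peptide stock (~250 μM) mixed 1:1 with neprilysin stock (100 μg/mL) in Tris/NaCl/NaHCO3 buffer, pH 8.3, at 37° C. Aliquots at 0, 30 min, 1, 2, 4, 24 h quenched in TFA/acetonitrile. Intact peptide estimated by RP-HPLC peak area at 210 nm.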
# [4] = tested on: GLP-1R knockout (KO) mice; assay: Glucose change in GLP-1R knockout mice; format: in vivo, mouse; details: GLP-1R KO mice, s.c., 120 min vs 0 min, somatostatin pretreatment (octreotide) 30 min prior to cpd
# In short: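 GLP-1R knockout mice (n=4-8/group, sorted by body weight) were fasted 2 h, and in some studies pretreated with octreotide 10 mg/kg 30 min before peptide injection. Mice were reused up to 3 times with at least 1-week wash-out.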
# [5] = tested on: wildtype (WT) mice; assay: Glucose change in wildtype mice; format: in vivo, mouse; details: s.c., 120 min vs 0 min, somatostatin pretreatment (octreotide) 30 min prior to cpd
# In short: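 Wildtype mice aged 8-14 weeks, fasted 2 h, sometimes pre-treated with octreotide 10 mg/kg 30 min before peptide injection. Blood glucose by glucometer at -30, 0, 30, 60, 120, 180, 240 and 360 min; n=4-8/group, mice reused up to 3 times with ≥1 week wash-out.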
smiles,measurement,setting,value
CC[C@H](C)[C@H](NC(=O)[C@H](Cc1c[nH]c2ccccc12)NC(=O)[C@H](CCC(=O)O)NC(=O)[C@@H](NC(=O)[C@](C)(Cc1ccccc1)NC(=O)[C@H](CC(=O)O)NC(=O)[C@H](CCC(N)=O)NC(=O)[C@H](C)NC(=O)[C@H](C)NC(=O)[C@H](CCCCNC(=O)CC[C@H](NC(=O)CCCCCCCCCCCCCCCCC(=O)O)C(=O)O)NC(=O)[C@H](CO)NC(=O)[C@H](CC(=O)O)NC(=O)[C@H](CC(C)C)NC(=O)[C@](C)(Cc1ccccc1)NC(=O)[C@H](CCCCN)NC(=O)[C@H](CO)NC(=O)[C@@H](NC(=O)[C@H](CC(=O)O)NC(=O)[C@H](CO)NC(=O)[C@@H](NC(=O)[C@](C)(Cc1ccccc1)NC(=O)[C@H](CO)NC(=O)CNC(=O)[C@H](Cc1c[nH]cn1)NC(=O)C(C)(C)NC(=O)[C@@H](N)Cc1c[nH]cn1)[C@@H](C)O)C(C)C)C(C)C)C(=O)N[C@@H](C)C(=O)N[C@@H](CC(N)=O)C(=O)N[C@H](C(N)=O)[C@@H](C)O [Peptide 7] (H-H[Aib]HGS[αMeF]TSDVSK[αMeF]LDSK([γGlu-C18 diacid])AAQD[αMeF]VEWIANT-NH2; N-terminus assumed),24 hr % Vehicle Food Intake,[1],55.0%
same,"remaining at 5 min, 125 µM",[2],81%
same,"remaining at 0.25 h, 125 µM",[2],35%
same,"remaining at 0.5 h, 125 µM",[2],18%
same,remaining at 0.5 h,[3]; isolated enzyme neprilysin,100%
same,remaining at 2 h,[3]; isolated enzyme neprilysin,100%
same,remaining at 4 h,[3]; isolated enzyme neprilysin,97%
same,remaining at 24 h,[3]; isolated enzyme neprilysin,84%
same,% intact peptide over time,[3],100%
same,GLP-1R KO % glucose change 120 min,[4]; 1.5 nmol/kg,80.8%
same,GLP-1R KO % glucose change 120 min,[4]; 5 nmol/kg,152.9%
same,WT % glucose change 120 min,[5]; 1.5 nmol/kg,5.4%
same,WT % glucose change 120 min,[5]; 5 nmol/kg,−21.2%

# — patent US20250353891A1 (MEDIMMUNE LIMITED, priority 2022, published 2025)
